Reference: the CheMixHub ionic liquid set

Test: xn = mol fraction of the nth substance listed

CCCCCCCCCC[n+]1ccn(C)c1.[Br-] + CCCCCCCCn1cc[n+](C)c1.[Br-] + O
298.15 K, 101 kPa
Details | electrical conductivity [S/m]
x2 = 0.001457, x1 = 0.0002702 | 0.7
x2 = 0.002534, x1 = 0.0004683 | 1.01
x2 = 0.003323, x1 = 0.0006123 | 1.2
x2 = 0.003985, x1 = 0.0007203 | 1.33
x2 = 0.00477, x1 = 0.0008642 | 1.45
x2 = 0.005466, x1 = 0.0009901 | 1.55

CN1CCCC1=O + CCCCCC[n+]1ccn(C)c1.N#C[S-]
101 kPa, x2 = 0
Details | viscosity [mPa·s]
288.15 K | 2.133
298.15 K | 1.791
308.15 K | 1.548
318.15 K | 1.312

CCOC(=O)OCC + CCCC[N+]1(C)CCCC1.O=S(=O)([N-]S(=O)(=O)C(F)(F)F)C(F)(F)F
Details | viscosity [mPa·s]
323.15 K, 100 kPa, x2 = 0 | 0.54

CCCC[n+]1ccn(C)c1.F[P-](F)(F)(F)(F)F + C1CCOC1
Details | viscosity [mPa·s]
298.15 K, 101 kPa, x2 = 0.195 | 91

CC1CNCCN1 (stereo not given) + CC(=O)[O-].CCCC[n+]1ccn(C)c1 + O
viscosity [mPa·s], 100 kPa
Details | 298.15 K | 303.15 K | 308.15 K | 313.15 K | 318.15 K | 323.15 K | 328.15 K | 333.15 K
x2 = 0.04327, x1 = 0.02647 | 3.46 | 3.23 | 2.82 | 2.64 | 2.39 | 1.91 | 1.31 | 1.16
x2 = 0.05132, x1 = 0.01784 | 3.58 | 3.38 | 3.16 | 3.02 | 2.84 | 2.52 | 2.47 | 1.83
x2 = 0.05944, x1 = 0.009089 | 4.03 | 3.78 | 3.72 | 3.24 | 3.11 | 2.89 | 2.54 | 2.03

C[N+]1(CCOCCOCCOCCOCC[N+]2(C)CCCC2)CCCC1.O=S(=O)([N-]S(=O)(=O)C(F)(F)F)C(F)(F)F.O=S(=O)([N-]S(=O)(=O)C(F)(F)F)C(F)(F)F + CC[n+]1ccn(C)c1.N#C[N-]C#N + O=S(=O)([N-]S(=O)(=O)C(F)(F)F)C(F)(F)F.[Li+]
100 kPa, x1 = 0.1429, x2 = 0.7537
Details | electrical conductivity [S/m]
298 K | 0.47
303 K | 0.56
313 K | 0.77
323 K | 1.08
333 K | 1.34
343 K | 1.63

CC[NH2+]CC.O=[N+]([O-])[O-] + CC[NH3+].O=[N+]([O-])[O-]
101 kPa, frequency 0.00293 MHz
Details | electrical conductivity [S/m]
293.15 K, x1 = 0.0998 | 1.73
293.15 K, x1 = 0.3501 | 1.46
308.15 K, x1 = 0.0499 | 2.78
313.15 K, x1 = 0.1999 | 2.79
313.15 K, x1 = 0.3501 | 2.63
318.15 K, x1 = 0.0998 | 3.44
318.15 K, x1 = 0.1499 | 3.39
323.15 K, x1 = 0.1499 | 3.79
323.15 K, x1 = 0.1999 | 3.53

101 kPa
Details | viscosity [mPa·s]
293.15 K, x1 = 0.0998 | 43.2
298.15 K, x1 = 0.2501 | 38.3
308.15 K, x1 = 0.0499 | 27
313.15 K, x1 = 0.1999 | 25.1
313.15 K, x1 = 0.3501 | 24.9
318.15 K, x1 = 0.0998 | 19.7
318.15 K, x1 = 0.2998 | 20.3
323.15 K, x1 = 0.1499 | 17.9
323.15 K, x1 = 0.1999 | 19.1
328.15 K, x1 = 0.0998 | 15.3
338.15 K, x1 = 0.2998 | 12.2
353.15 K, x1 = 0.0998 | 8.96
353.15 K, x1 = 0.1499 | 8.99
353.15 K, x1 = 0.1999 | 9.7
353.15 K, x1 = 0.3501 | 9.47

CN(C)C=O + CC[n+]1ccn(C)c1.[Cl-]
Details | viscosity [mPa·s]
288.15 K, 101 kPa, x1 = 1 | 0.94

CCCC[n+]1cccc(C)c1.O=S(=O)([N-]S(=O)(=O)C(F)(F)F)C(F)(F)F + CO
298.15 K, 101.3 kPa
Details | electrical conductivity [S/m]
x2 = 0.1004 | 0.338
x2 = 0.7793 | 1.68
x2 = 0.9417 | 2.04
x2 = 0.9589 | 1.83

CCCC[n+]1ccn(C)c1.O=S(=O)([N-]S(=O)(=O)C(F)(F)F)C(F)(F)F + CCCC[n+]1ccn(C)c1.N#C[C-](C#N)C#N
100 kPa, x1 = 1
Details | viscosity [mPa·s]
283.15 K | 106.8
288.15 K | 82.2
293.15 K | 64.5
298.15 K | 51.6
303.15 K | 41.9
308.15 K | 34.6
313.15 K | 28.9
318.15 K | 24.5
323.15 K | 20.9
328.15 K | 18.05
333.15 K | 15.72
338.15 K | 13.8
343.15 K | 12.2
348.15 K | 10.86
353.15 K | 9.72
358.15 K | 8.75
363.15 K | 7.93

CCOC(C)=O + CCCC[n+]1ccn(C)c1.O=S(=O)([N-]S(=O)(=O)C(F)(F)F)C(F)(F)F
298.15 K, 101 kPa
Details | viscosity [mPa·s]
x1 = 0.092 | 40
x1 = 0.2303 | 26.5

CCCCCC(=O)O + CCCC[P+](CCCC)(CCCC)CCCC.[Br-]
Details | viscosity [mPa·s]
298 K, 100 kPa, x2 = 0.5 | 290

CC[n+]1ccn(C)c1.O=S(=O)([O-])O + O=C([O-])CC(O)(CC(=O)[O-])C(=O)[O-].[Li+].[Li+].[Li+] + O
viscosity [mPa·s], 101 kPa
Details | 293.15 K | 298.15 K | 303.15 K | 308.15 K | 313.15 K
x2 = 0, x1 = 0.0006645 | 1.023 | 0.93 | 0.823 | 0.75 | 0.674
x2 = 0, x1 = 0.0007293 | 1.036 | 0.943 | 0.825 | 0.749 | 0.689
x2 = 0, x1 = 0.0009254 | 1.064 | 0.943 | 0.844 | 0.763 | 0.683

CCCC[n+]1ccccc1.[Cl-] + CC[n+]1ccccc1.[Br-]
101 kPa
Details | viscosity [mPa·s]
388.1 K, x2 = 0.484 | 30
388.1 K, x2 = 0.694 | 23.1
393.1 K, x2 = 0.64 | 21.6
393.1 K, x2 = 0.797 | 18.11
403.1 K, x2 = 0.408 | 21.2
403.1 K, x2 = 0.604 | 17.39
408.1 K, x2 = 0.64 | 14.86
408.1 K, x2 = 0.797 | 12.97
413.1 K, x2 = 0.193 | 19.5
413.1 K, x2 = 0.64 | 13.22
413.1 K, x2 = 0.694 | 12.73
413.1 K, x2 = 0.797 | 11.67
418.1 K, x2 = 0.104 | 18.3
418.1 K, x2 = 0.64 | 11.81
418.1 K, x2 = 0.694 | 11.42
423.1 K, x2 = 0.313 | 13.73
423.1 K, x2 = 0.797 | 9.52
423.1 K, x2 = 0.894 | 8.8
428.1 K, x2 = 0.313 | 12.22
428.1 K, x2 = 0.604 | 9.82
428.1 K, x2 = 0.694 | 9.28
433.1 K, x2 = 0.484 | 9.72
433.1 K, x2 = 0.64 | 8.61
438.1 K, x2 = 0.604 | 8.04
438.1 K, x2 = 0.894 | 6.68
443.1 K, x2 = 0.64 | 7.11
443.1 K, x2 = 0.797 | 6.56

CCCC[n+]1ccn(C)c1.O=S(=O)([N-]S(=O)(=O)C(F)(F)F)C(F)(F)F + CCCCOC(C)=O
298.15 K, 100 kPa, x2 = 0
Details | electrical conductivity [S/m] | viscosity [mPa·s]
– | 0.39 | 50.2

CCCC[n+]1ccn(C)c1.O=S(=O)([N-]S(=O)(=O)C(F)(F)F)C(F)(F)F + OCC(F)(F)F
Details | viscosity [mPa·s]
283.15 K, 101 kPa, x2 = 0 | 107

CN1CCCC1=O + CCCCCCCCn1cc[n+](C)c1.N#C[S-]
101 kPa, x2 = 0
Details | viscosity [mPa·s]
288.15 K | 2.127
298.15 K | 1.785
308.15 K | 1.543
318.15 K | 1.306

CCCC[n+]1ccn(C)c1.F[P-](F)(F)(F)(F)F + OC[C@H]1O[C@H](O[C@H]2[C@H](O)[C@@H](O)C(O)O[C@@H]2CO)[C@H](O)[C@@H](O)[C@@H]1O + O
viscosity [mPa·s], 100 kPa
Details | 293.15 K | 298.15 K | 303.15 K | 308.15 K | 313.15 K
x1 = 0.0001838, x2 = 0 | 1.011 | 0.905 | 0.821 | 0.742 | 0.661
x1 = 0.0005385, x2 = 0 | 1.025 | 0.916 | 0.826 | 0.744 | 0.674
x1 = 0.0008966, x2 = 0 | 1.038 | 0.922 | 0.83 | 0.75 | 0.677
x1 = 0.001262, x2 = 0 | 1.041 | 0.932 | 0.843 | 0.761 | 0.683
